Assay results reported in patent US20060280725A1, “Compositions and methods of treating and diagnosing hepatoma” (priority 2003, published 2006).

What was measured:
[1] = test system: Hep3B, PLC/PRF/5, Focus and THLE-5B cell lines; assay: Amino acid inhibition analysis of Na+-dependent glutamine transport; assay type: cell-based, human; conditions: for inhibition at 5000 µM: Homo sapiens, unlabeled amino acid at 5 mM, 50 μM L-glutamine, Hep3B, PLC/PRF/5, Focus, THLE-5B, read-out: inhibition of glutamine uptake
Method: (§1) FIG. 1. Amino acid inhibition analysis of glutamine transport in the Hep3B, PLC/PRF/5 and Focus human hepatoma cell lines and the THLE-5B SV40-immortalized human liver epithelial cell line. The Na^+-dependent transport of 50 μM L-glutamine was measured as described in the Methods section in the absence or presence of the indicated unlabeled amino acids at 5 mM. Testing of cysteine (CYSH) required the presence of 5 mM dithiothreitol (DTT) as a reducing agent, so DTT was tested alone as well. Arrows indicate the relative transport rates for 50 μM L-glutamine in primary human adult (solid arrow) and fetal (open arrow) hepatocytes. The results represent the average±SD of four separate determinations (*p<0.010 versus control). The Eadie-Hofstee plots of the kinetic analyses are shown as an inset in each figure, with the dashed lines representing the resolved high and low affinity components of the composite data (solid line). The derived values of the kinetic constants for each component are given in the Results section.
(§2) Glutamine Transport Assays. Measurement of initial-rate glutamine uptake was carried out via the cluster-tray method originally described by Gazzola (21) as reported previously (6, 9). Briefly, after trypsinization hepatoma cells were plated at a density of 1×10^5 cells/well in 24-well culture plates (Costar Corp., Cambridge, Mass.) and allowed to grow to >80% confluence, typically one to two days later. For initial-rate measurements, the radiotracer utilized was L-[G-^3H] glutamine (Amersham Corp., Arlington Heights, Ill.) at 4 μCi/ml, in the presence of unlabeled L-glutamine at 50 μM. For kinetic studies, the amount of unlabeled glutamine in the transport buffer varied from 10 μM to 10 mM. All transport measurements were carried out at 37° C. and were terminated after 30 s by three rapid washes with an ice-cold phosphate-buffered saline solution. Intracellular radiolabeled glutamine was extracted with 0.2 ml/well of 0.2% sodium dodecyl sulfate (SDS) and 0.2 N NaOH; after 1 h, 0.1 ml of the lysate was neutralized with 10 μl of 2 N HCl and subjected to scintillation spectrophotometry in a Packard TopCount™ (Packard Instruments, Meriden, Conn.). The remaining lysate was utilized for the determination of cellular protein by the bicinchoninic acid (BCA) method (Pierce Chemical Co., Rockford, Ill.). Rates of glutamine transport were calculated from the cpm per sample, the specific activity of the uptake mix (in cpm/nmol) and normalized to cellular protein content in a Microsoft Excel® spreadsheet program. Transport values obtained in the absence of extracellular Na^+ (diffusion and Na^+-independent uptake) were subtracted from those in the presence of Na^+ (total uptake) to yield Na^+-dependent rates which are reported in units of nmol•mg^−1 protein•30 s^−1. […]

[2] = test system: human fetal liver fibroblasts (HFLF); assay: Glutamine transport assay (inhibition and kinetic analysis); assay type: cell-based; conditions: 5 mM, 50 μM L-glutamine
Method: FIG. 5. Functional and molecular assessment of ATB^0 expression in human fetal liver fibroblasts (HFLF) and cirrhotic liver tissue. A) Amino acid inhibition analysis of Na^+-dependent glutamine uptake in human fetal liver fibroblasts. Fibroblasts were isolated and cultured as described in the Methods section, and amino acid inhibition analysis of 50 μM L-glutamine uptake was carried out as described in FIG. 1. *p<0.010 vs. control. The Eadie-Hofstee plot of the kinetic analysis is shown as an inset, with the dashed lines representing the resolved high and low affinity components of the composite data (solid line). The derived values of the kinetic constants for each component are given in the Results section. B) Northern blot analysis of ATB^0 expression in HFLF. Radiolabeled cDNA probes were generated with the Megaprime™ kit as described in the Methods section, and hybridized to 20 μg of total RNA from HFLF. Exposure time was 24 h. C) RT-PCR and restriction enzyme analysis of ATB^0 expression in HFLF, normal and cirrhotic liver. The analysis was carried out exactly as described in FIG. 3. Omission of RT is shown for the normal liver sample. D) Expression of ATB^0 in biopsies from a patient with liver cirrhosis and hepatocellular carcinoma (HCC). Northern blot analysis of ATB^0 & SN1 expression were performed on RNA extracted from the snap-frozen biopsies. RNA isolation and northern blot analysis was carried out as described in the Methods section, with full-length riboprobes used for detection of transporter mRNA. Exposure times for the blots are shown to illustrate relative expression levels for ATB^0 in each of the samples.
as §2, with “s^−1. All transport values depicted are the average±standard deviation of four separate determinations. Kinetic analysis of Eadie-Hofstee linearized transport data (v vs. v/[L-GLN]) was performed by regression analysis (Cricket Graph®, Computer Associates, Islandia, N.Y.). Nonlinear regression analysis was performed with DataDesk (Data Description, Inc. Ithaca, N.Y.) and Excel for two component Michaelis-Menten kinetics: v=((Vmax1×[S])/(Km1+[S])+(Vmax2×[S])/(Km2+[S])).” for “s^−1.”

SK-Hep cells [3] = assay: Cellular quantification (hemacytometer cell number, viability); assay type: cell-based, human; conditions: treatment with MFP
Method: FIG. 11. Effect of induced antisense RNA expression and glutamine deprivation on cellular proliferation and viability. Cultures of SK-Hep cells stably transfected with a 1.3 kb ATB^0 construct in the antisense orientation (Antisense 1-1) were treated at time zero with either inducer (FP, 10 nM), vehicle (ethanol, 0.1%) or maintained in the presence (+GLN) or absence (−GLN) of glutamine (DMEM+10% dialyzed FBS±2 mM L-GLN). At the indicated times thereafter, cell number was calculated after trypsmization and subsequent counting on a hemacytometer. The results represent the average±SD of five separate determinations. **p<0.010 versus-MFP. ††p<0.010 versus+GLN. […]
Cellular Quantification. Initial screens of the stably transfected sense and antisense ATB^0/ASCT2 clones to MFP induction utilized the colorimetric MTT (3-[4,5-Dimethylthiazol-2-yl]-2,5-diphenyltetrazolium bromide (Sigma)) assay as previously described (57), using a spectrophotometric plate reader at a wavelength of 562 nm (Bio-Tek EL311SX, Winooski, Vt.). The absorbance is considered to be directly proportional to the number of metabolically active mitochondria, and by extension, the number of cells. In subsequent studies, cell number was quantified directly. At specific times after experimental treatment (±MFP or ±glutamine), cells were removed from the culture dish via trypsinization and quantified on a hemacytometer. […]

SK-Hep cells [4] = assay: Na+-dependent glutamine transport assay in SK-Hep cells and transfected clones; assay type: cell-based, human; conditions: SK-Hep parent cells
Method: FIG. 10. Effect of induced ATB0/ASCT2 antisense RNA expression on Na^+-dependent glutamine uptake. Cultures of the SK-Hep parent cell line and SK-Hep cells stably transfected with a 1.3 kb ATB^0 construct in the sense orientation (Sense 2-1) or antisense orientation (Antisense 1-1) were treated with inducer (MFP, 10 nM) or vehicle (ethanol, 0.1%) at time zero. At the indicated times thereafter, the initial rate (30 s) Na^+-dependent transport velocity of 50 μM L-glutamine was measured by radiotracer analysis as described in the methods section. The results represent the average±SD of four separate determinations. *p<0.050 versus control. **p<0.010 versus control.
Glutamine Transport Assays. Measurement of initial-rate Na^+-dependent glutamine uptake was performed by radiotracer analysis using the cluster tray method described in detail previously (57). Initial rate transport velocities are expressed as the average±SD of at least four separate determinations. The transport data was analyzed for significant differences using a t-test with a p<0.050 considered significant.
Inpact of antisense ATB^0/ASCT2 RNA on glutamine transport rates. In order to determine the functional effect of targeting ATB^0/ASCT2 mRNA, glutamine transport rates were measured.

SK-Hep cells [5] = assay: Poly IC treatment of SK-Hep cells (growth, viability, apoptosis); assay type: cell-based, human
Method: Possible role of a PKR response in hepatoma apoptosis. Given the marked effect of induced ATB^0/ASCT2 antisense RNA expression on hepatoma viability and apoptosis, the possibility that the transporter knockdown response was a nonspecific double stranded RNA-dependent protein kinase (PKR) (62) mediated event was considered. To this end, cells were treated with Polyriboinosinic-polyribocytidylic acid (poly IC)—a mimic of double stranded RNA and stimulator of PKR in mammalian cells.
The mechanism leading from ATB^0/ASCT2 inhibition to apoptosis is unclear, but is currently being investigated. As we ruled out a nonspecific double stranded RNA (PKR) response (FIG. 14), we hypothesize that another cellular stress pathway links transporter suppression to apoptosis. Specifically, oxidative stress may be involved due to the likely loss of the antioxidant glutathione after diminution of its precursor glutamine (65, 66). PKR phosphorylates the α chain of the eukaryotic translation initiation factor eIF2 inhibiting the guanine nucleotide exchange factor eIF2B and turning off protein synthesis. In this respect, the selective expression of ATB^0/ASCT2 in cancerous versus normal human liver cells remains important since tumor-specific activation of PKR has recently been used to inhibit glioma growth in vivo [68]. […]

THLE-5B = assay: Glutamine transport assay (inhibition and kinetic analysis); assay type: cell-based, human; conditions: 5 mM, 50 μM L-glutamine, p<0.050
Method: as §1
Glutamine Transport Assays. Measurement of initial-rate glutamine uptake was carried out via the cluster-tray method originally described by Gazzola (21) as reported previously (6, 9). Briefly, after trypsinization hepatoma cells were plated at a density of 1×10^5 cells/well in 24-well culture plates (Costar Corp., Cambridge, Mass.) and allowed to grow to >80% confluence, typically one to two days later. For initial-rate measurements, the radiotracer utilized was L-[G-^3H] glutamine (Amersham Corp., Arlington Heights, Ill.) at 4 μCi/ml, in the presence of unlabeled L-glutamine at 50 μM. For kinetic studies, the amount of unlabeled glutamine in the transport buffer varied from 10 μM to 10 mM. All transport measurements were carried out at 37° C. and were terminated after 30 s by three rapid washes with an ice-cold phosphate-buffered saline solution. Intracellular radiolabeled glutamine was extracted with 0.2 ml/well of 0.2% sodium dodecyl sulfate (SDS) and 0.2 N NaOH; after 1 h, 0.1 ml of the lysate was neutralized with 10 μl of 2 N HCl and subjected to scintillation spectrophotometry in a Packard TopCount™ (Packard Instruments, Meriden, Conn.). The remaining lysate was utilized for the determination of cellular protein by the bicinchoninic acid (BCA) method (Pierce Chemical Co., Rockford, Ill.). Rates of glutamine transport were calculated from the cpm per sample, the specific activity of the uptake mix (in cpm/nmol) and normalized to cellular protein content in a Microsoft Excel® spreadsheet program. Transport values obtained in the absence of extracellular Na^+ (diffusion and Na^+-independent uptake) were subtracted from those in the presence of Na^+ (total uptake) to yield Na^+-dependent rates which are reported in units of nmol•mg^−1 protein•30 s^−1. All transport values depicted are the average±standard deviation of four separate determinations. Kinetic analysis of Eadie-Hofstee linearized transport data (v vs. v/[L-GLN]) was performed by regression analysis (Cricket Graph®, Computer Associates, Islandia, N.Y.). Nonlinear regression analysis was performed with DataDesk (Data Description, Inc. Ithaca, N.Y.) and Excel for two component Michaelis-Menten kinetics: v=((Vmax1×[S])/(Km1+[S])+(Vmax2×[S])/(Km2+[S])).
It should be noted that extensive depletion of intracellular amino acid pools were not performed prior to transport measurements in these studies because we sought to assess glutamine uptake under more physiological conditions. […]

Row | Molecule | inhibition at 5000 µM [1] [%] | inhibition of Na+-dependent glutamine uptake [2] | further results
1 | N[C@@H](CO)C(=O)O [serine, reference compound] | > 80 | marked inhibition | –
2 | CC#C[C@]1(O)CC[C@H]2[C@@H]3CCC4=CC(=O)CCC4=C3[C@@H](c3ccc(N(C)C)cc3)C[C@@]21C [MFP, mifepristone] | – | – | growth of the SK-Hep parent cell line (SK-Hep cells [3]): unaffected; decrease in glutamine transport rates (SK-Hep cells [4]; 14 h MFP 10 nM, p<0.050, not reproduced in subsequent studies): 23%; decrease in glutamine transport rates (SK-Hep cells [4]; 24 h MFP): not observed
3 | Polyriboinosinic-polyribocytidylic acid [poly IC] | – | – | apoptotic response in SK-Hep cells (SK-Hep cells [5]): failed to elicit the apoptotic response; growth or viability of SK-Hep cells (SK-Hep cells [5]): failed to impact growth or viability
4 | N[C@@H](CS)C(=O)O [cysteine, reference compound] | > 80 | marked inhibition | –
5 | CNC(C)(C)C(=O)O [MeAIB, alpha-(methylamino)isobutyric acid, reference compound] | – | not | inhibition of glutamine uptake ([1]; 5 mM, all cell lines except THLE-5B): failed to significantly inhibit glutamine uptake; diminished glutamine uptake (THLE-5B): 29%
6 | C[C@H](N)C(=O)O [alanine, reference compound] | > 80 | marked inhibition | –
